# Source: patent US5072002A, “Synthesis of cholesterol-lowering agents” (The Governors of the University of Alberta, priority 1989, dated 1991)
# Key:
# [1] = biological target: T1, Rat Liver 3-hydroxy-3-methylglutarylcoenzyme A Reductase (Rattus norvegicus, UniProt P51639); assay: Assay of HMGCoA reductase (rat liver microsomes), in vitro; type: biochemical; conditions: 20 min, 37° C., DMSO control 652, none 1254
# T1 construct: rat liver microsome (75 μg protein); from tissue; host or cells: rat liver microsomes
# T1 sequence (P51639 1-887): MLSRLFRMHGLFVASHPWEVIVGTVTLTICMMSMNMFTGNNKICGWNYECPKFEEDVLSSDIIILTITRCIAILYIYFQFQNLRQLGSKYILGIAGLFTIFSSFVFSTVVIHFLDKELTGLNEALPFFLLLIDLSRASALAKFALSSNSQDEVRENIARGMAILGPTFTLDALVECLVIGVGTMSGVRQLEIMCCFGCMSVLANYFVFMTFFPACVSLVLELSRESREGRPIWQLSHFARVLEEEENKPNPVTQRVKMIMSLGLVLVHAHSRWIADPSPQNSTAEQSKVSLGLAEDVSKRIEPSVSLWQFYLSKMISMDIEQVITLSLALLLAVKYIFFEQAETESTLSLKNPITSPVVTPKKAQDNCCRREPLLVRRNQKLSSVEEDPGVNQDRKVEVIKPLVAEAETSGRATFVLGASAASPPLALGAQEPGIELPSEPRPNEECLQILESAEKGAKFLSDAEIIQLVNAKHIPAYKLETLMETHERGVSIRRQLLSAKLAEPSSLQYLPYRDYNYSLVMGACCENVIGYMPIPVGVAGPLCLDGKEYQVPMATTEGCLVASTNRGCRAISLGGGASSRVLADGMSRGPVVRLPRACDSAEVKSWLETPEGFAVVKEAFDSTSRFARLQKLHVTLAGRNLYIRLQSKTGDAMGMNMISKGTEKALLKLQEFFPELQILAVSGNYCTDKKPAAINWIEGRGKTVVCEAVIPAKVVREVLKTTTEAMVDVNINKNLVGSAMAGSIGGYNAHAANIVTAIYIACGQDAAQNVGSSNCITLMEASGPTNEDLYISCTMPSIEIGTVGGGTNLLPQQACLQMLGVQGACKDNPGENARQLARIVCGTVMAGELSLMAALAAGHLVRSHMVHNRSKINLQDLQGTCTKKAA
# Procedure: Ethylcompactin and mevinolin were dissolved in DMSO. Aliquots (10 μl) of each were incubated with 50 μl of 50 mM Pot. phosphate pH 7.4, 70 mM KCl, 30 mM EDTA, 10 mM DTT for 30 min at 37° C. to delactonize the compounds. Control incubations were done with 10 μL DMSO.
# Assay of HMGCoA reductase was carried out as described by George and Ramasarma, [George R., Ramasarma, T., Biochem. J. (1977) 162:493-499]. At the end of 30 min, incubation for […], rat liver microsome (75 μg protein) were added to each tube along with glucose-6-phosphate (577 μM) glucose-6-phosphate dehydrogenase (0.05 unit/assay) and MADPH ([…]) and incubated for an additional 10 min at 37° C.
# HMGCoA reductase reaction was initiated by the additon of 3-^14 C-HMGCoA ([…], final) and carried out for 20 min at 37° C. in a total volume of 100 μl. The reaction was terminated by the addition of 5N HCl (25 μl) containing known amounts of ^3 -H-Mevalonolactone as internal standard and non-radioactive mevalonolactone (0.6 mg/assay) as carrier. Mevalonic acid formed in the assay was allowed to lactonize by incubating the mixture for 30 min at 37° C. The precipitated protein was removed by centrifugation in a microfuge. An aliquot of the supernatant (40 μl) was applied on silica gel G (0.25 mm thickness) plates and the chromatogram developed with Acetone:Benzene (3:2). The spot corresponding to the mevalonolactone (Rf 0.5) was scraped off and the radioactivity estimated by liquid scintillation counting. Mevalonic acid formed was calcualted from the recovery of internal standard. Microsomal protein was estimated by the method of Lowry [J. Biol. Chem. (1951) 193:265-275 ] after precipitation according to Bensadoun and Weinstein [Anal. Biochem. (1976) 70:241-250]. The specific activity of HMGCoA reductase is expressed as p moles of mevalonic acid formed per minute per mg of microsomal protein.
# [2] = administered to human beings; cited from earlier work
# [3] = based on existing biological data; cited from earlier work
# [4] = 100 nM in assay (in 10 μl DMSO)
SMILES,HMGCoA Reductase Activity ([1]; 1 nM in assay (in 10 μl DMSO)),"HMGCoA Reductase Activity [1, 4]",HMGCoA Reductase Activity ([1]; 1 μM in assay (in 10 μl DMSO)),HMGCoA Reductase Activity ([1]; 10 μM in assay (in 10 μl DMSO)),concentration in the blood of LDL cholesterol [2],activity in lowering LDL cholesterol levels as compared to Compactin [3]
"CC[C@H](C)C(=O)O[C@H]1C[C@@H](C)C=C2C=C[C@H](C)[C@H](CC[C@@H]3C[C@@H](O)CC(=O)O3)[C@H]21 [Mevinolin, (+)-Mevinolin]",609 pmol Mevalonate formed/min/mg,303 pmol Mevalonate formed/min/mg,113 pmol Mevalonate formed/min/mg,52 pmol Mevalonate formed/min/mg,reduced,several times more active
"CC[C@H](C)C(=O)O[C@H]1CCC=C2C=C[C@H](C)[C@H](CC[C@@H]3C[C@@H](O)CC(=O)O3)[C@H]21 [Compactin, (+)-Compactin]",–,–,–,–,reduced,–
"CC[C@H]1C=C2C=C[C@H](C)[C@H](CC[C@@H]3C[C@@H](O)CC(=O)O3)[C@H]2[C@@H](OC(=O)[C@@H](C)CC)C1 [Ethyl Compactin, (+)-3-Ethylcompactin]",730 pmol Mevalonate formed/min/mg,361 pmol Mevalonate formed/min/mg,182 pmol Mevalonate formed/min/mg,20 pmol Mevalonate formed/min/mg,–,–
